Measured values from ChEMBL document CHEMBL1201862, “PubChem BioAssay data set” (2004).
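Exposure lasted 48 hours, with cells grown in 96-well plates and compounds tested at five concentrations. Abbreviation: GI50, concentration required for 50% inhibition of growth.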 Active and inactive are the calls of the source. No stated cut-off is given here; in the data, active = GI50 up to about 1.1 µM and inactive = higher.

Columns and labels:
Experiment in all cases: growth of human tumour cells (NCI), 48 h
EKVX = tested on: EKVX
SK-MEL-28 = tested on: SK-MEL-28
OVCAR-4 = tested on: OVCAR-4
MDA-N = tested on: MDA-N
HL-60 = tested on: HL-60
KM12 = tested on: KM12
A549 = tested on: A549
Malme-3M = tested on: Malme-3M
SNB-19 = tested on: SNB-19
T47D = tested on: T47D
SF-539 = tested on: SF-539
NCI-H460 = tested on: NCI-H460
MCF7 = tested on: MCF7
DU-145 = tested on: DU-145
TK-10 = tested on: TK-10
HT-29 = tested on: HT-29
M14 = tested on: M14
BT-549 = tested on: BT-549
SW-620 = tested on: SW-620
HCT-15 = tested on: HCT-15
MDA-MB-231 = tested on: MDA-MB-231
OVCAR-3 = tested on: OVCAR-3
UACC-62 = tested on: UACC-62
NCI-H226 = tested on: NCI-H226
UACC-257 = tested on: UACC-257
NCI/ADR-RES = tested on: NCI/ADR-RES
SK-MEL-2 = tested on: SK-MEL-2
HOP-62 = tested on: HOP-62
U-251 = tested on: U-251
MDA-MB-435 = tested on: MDA-MB-435
ACHN = tested on: ACHN
SF-295 = tested on: SF-295
OVCAR-8 = tested on: OVCAR-8
Hs-578T = tested on: Hs-578T
SN12C = tested on: SN12C
CCRF-CEM = tested on: CCRF-CEM
HOP-92 = tested on: HOP-92
HCC 2998 = tested on: HCC 2998
NCI-H522 = tested on: NCI-H522
A498 = tested on: A498
IGROV-1 = tested on: IGROV-1
MOLT-4 = tested on: MOLT-4
PC-3 = tested on: PC-3
LOX IMVI = tested on: LOX IMVI
SNB-75 = tested on: SNB-75
HCT-116 = tested on: HCT-116
786-0 = tested on: 786-0
UO-31 = tested on: UO-31
SK-OV-3 = tested on: SK-OV-3
SK-MEL-5 = tested on: SK-MEL-5
RXF 393 = tested on: RXF 393
NCI-H23 = tested on: NCI-H23
SF-268 = tested on: SF-268
SR = tested on: SR
COLO 205 = tested on: COLO 205
CAKI-1 = tested on: CAKI-1
OVCAR-5 = tested on: OVCAR-5
K562 = tested on: K562
RPMI-8226 = tested on: RPMI-8226

SMILES: CC1=CC(=O)/C(=C/NC(=S)NCc2ccccc2)C(=O)O1
- GI50 (EKVX): > 100 µM (inactive)
- GI50 (SK-MEL-28): > 100 µM (inactive)
- GI50 (OVCAR-4): > 100 µM (inactive)
- GI50 (MDA-N): > 100 µM (inactive)
- GI50 (HL-60): 75.3 µM (inactive)
- GI50 (KM12): > 100 µM (inactive)
- GI50 (A549): > 100 µM (inactive)
- GI50 (Malme-3M): > 100 µM (inactive)
- GI50 (SNB-19): > 100 µM (inactive)
- GI50 (T47D): > 100 µM (inactive)
- GI50 (SF-539): > 100 µM (inactive)
- GI50 (NCI-H460): > 100 µM (inactive)
- GI50 (MCF7): > 100 µM (inactive)
- GI50 (DU-145): > 100 µM (inactive)
- GI50 (TK-10): > 100 µM (inactive)
- GI50 (HT-29): > 100 µM (inactive)
- GI50 (M14): > 100 µM (inactive)
- GI50 (BT-549): > 100 µM (inactive)
- GI50 (SW-620): > 100 µM (inactive)
- GI50 (HCT-15): > 100 µM
- GI50 (MDA-MB-231): > 100 µM (inactive)
- GI50 (OVCAR-3): > 100 µM (inactive)
- GI50 (UACC-62): > 100 µM (inactive)
- GI50 (NCI-H226): > 100 µM (inactive)
- GI50 (UACC-257): > 100 µM (inactive)
- GI50 (NCI/ADR-RES): > 100 µM (inactive)
- GI50 (SK-MEL-2): > 100 µM (inactive)
- GI50 (HOP-62): > 100 µM (inactive)
- GI50 (U-251): > 100 µM (inactive)
- GI50 (MDA-MB-435): > 100 µM (inactive)
- GI50 (ACHN): > 100 µM (inactive)
- GI50 (SF-295): > 100 µM (inactive)
- GI50 (OVCAR-8): > 100 µM (inactive)
- GI50 (Hs-578T): > 100 µM (inactive)
- GI50 (SN12C): > 100 µM (inactive)
- GI50 (CCRF-CEM): > 100 µM (inactive)
- GI50 (HOP-92): > 100 µM (inactive)
- GI50 (HCC 2998): > 100 µM (inactive)
- GI50 (NCI-H522): > 100 µM (inactive)
- GI50 (A498): 43.9 µM (inactive)
- GI50 (IGROV-1): > 100 µM (inactive)
- GI50 (MOLT-4): 52.2 µM (inactive)
- GI50 (PC-3): > 100 µM (inactive)
- GI50 (LOX IMVI): > 100 µM (inactive)
- GI50 (SNB-75): 80 µM (inactive)
- GI50 (HCT-116): > 100 µM (inactive)
- GI50 (786-0): > 100 µM (inactive)
- GI50 (UO-31): > 100 µM (inactive)
- GI50 (SK-OV-3): > 100 µM (inactive)
- GI50 (SK-MEL-5): > 100 µM (inactive)
- GI50 (RXF 393): > 100 µM (inactive)
- GI50 (NCI-H23): > 100 µM (inactive)
- GI50 (SF-268): > 100 µM (inactive)
- GI50 (SR): > 100 µM (inactive)
- GI50 (COLO 205): > 100 µM (inactive)
- GI50 (CAKI-1): > 100 µM (inactive)
- GI50 (OVCAR-5): > 100 µM (inactive)

SMILES: C=CCNC1=C2C[C@@H](C)C[C@@H](OC)[C@H](OC(=O)CCN(C)C)[C@H](C)/C=C(\C)[C@@H](OC(N)=O)[C@H](OC)/C=C\C=C(/C)C(=O)NC(=CC1=O)C2=O
- GI50 (EKVX): 1.35 µM (inactive)
- GI50 (SK-MEL-28): 0.171 µM (active)
- GI50 (OVCAR-4): 3.97 µM (inactive)
- GI50 (MDA-N): 0.0386 µM (active)
- GI50 (K562): 0.156 µM (active)
- GI50 (HL-60): 0.362 µM (active)
- GI50 (KM12): 0.0342 µM (active)
- GI50 (A549): 0.0559 µM (active)
- GI50 (Malme-3M): 0.0643 µM (active)
- GI50 (SNB-19): 1.17 µM (inactive)
- GI50 (T47D): 1.13 µM (inactive)
- GI50 (SF-539): 0.0562 µM (active)
- GI50 (NCI-H460): 0.0627 µM (active)
- GI50 (MCF7): 0.0295 µM (active)
- GI50 (DU-145): 0.993 µM (active)
- GI50 (TK-10): 0.0755 µM (active)
- GI50 (HT-29): < 0.01 µM (active)
- GI50 (M14): 0.0622 µM (active)
- GI50 (BT-549): 12.9 µM (inactive)
- GI50 (SW-620): 0.0578 µM (active)
- GI50 (HCT-15): 0.535 µM
- GI50 (MDA-MB-231): 2.05 µM (inactive)
- GI50 (OVCAR-3): 0.205 µM (active)
- GI50 (UACC-62): 0.0545 µM (active)
- GI50 (UACC-257): 0.0914 µM (active)
- GI50 (NCI/ADR-RES): 8.51 µM (inactive)
- GI50 (SK-MEL-2): 0.059 µM (active)
- GI50 (HOP-62): 0.044 µM (active)
- GI50 (U-251): 0.203 µM (active)
- GI50 (MDA-MB-435): 0.053 µM (active)
- GI50 (ACHN): 0.875 µM (active)
- GI50 (SF-295): 0.134 µM (active)
- GI50 (OVCAR-8): 0.324 µM (active)
- GI50 (Hs-578T): 12.1 µM (inactive)
- GI50 (SN12C): 0.0869 µM (active)
- GI50 (CCRF-CEM): 3.09 µM (inactive)
- GI50 (HOP-92): 8.41 µM (inactive)
- GI50 (HCC 2998): 0.0641 µM (active)
- GI50 (NCI-H522): 0.125 µM (active)
- GI50 (A498): 0.297 µM (active)
- GI50 (IGROV-1): 0.13 µM (active)
- GI50 (MOLT-4): 1.53 µM (inactive)
- GI50 (PC-3): 0.0386 µM (active)
- GI50 (LOX IMVI): 0.0993 µM (active)
- GI50 (SNB-75): 0.1 µM (active)
- GI50 (HCT-116): 0.134 µM (active)
- GI50 (786-0): 1.43 µM (inactive)
- GI50 (UO-31): 0.822 µM (active)
- GI50 (SK-OV-3): 0.0327 µM (active)
- GI50 (SK-MEL-5): 0.0508 µM (active)
- GI50 (RXF 393): 0.182 µM (active)
- GI50 (NCI-H23): 0.0547 µM (active)
- GI50 (SF-268): 1.35 µM (inactive)
- GI50 (SR): 0.0204 µM (active)
- GI50 (COLO 205): < 0.0188 µM (active)
- GI50 (CAKI-1): 1.88 µM (inactive)
- GI50 (OVCAR-5): 2.18 µM (inactive)
- GI50 (RPMI-8226): 1.15 µM (inactive)

SMILES: N=C(N)NCCCC(NC(=O)OCCCCCn1ccc(N)nc1=O)C(=O)O (stereo unspecified)
- GI50 (EKVX): > 100 µM (inactive)
- GI50 (SK-MEL-28): > 100 µM (inactive)
- GI50 (OVCAR-4): > 100 µM (inactive)
- GI50 (MDA-N): > 100 µM (inactive)
- GI50 (K562): > 100 µM (inactive)
- GI50 (HL-60): > 100 µM (inactive)
- GI50 (KM12): > 100 µM (inactive)
- GI50 (A549): > 100 µM (inactive)
- GI50 (SNB-19): > 100 µM (inactive)
- GI50 (T47D): > 100 µM (inactive)
- GI50 (SF-539): > 100 µM (inactive)
- GI50 (NCI-H460): > 100 µM (inactive)
- GI50 (MCF7): > 100 µM (inactive)
- GI50 (DU-145): > 100 µM (inactive)
- GI50 (TK-10): > 100 µM (inactive)
- GI50 (HT-29): > 100 µM (inactive)
- GI50 (M14): > 100 µM (inactive)
- GI50 (BT-549): > 100 µM (inactive)
- GI50 (SW-620): > 100 µM (inactive)
- GI50 (HCT-15): > 100 µM
- GI50 (MDA-MB-231): > 100 µM (inactive)
- GI50 (OVCAR-3): > 100 µM (inactive)
- GI50 (UACC-62): > 100 µM (inactive)
- GI50 (NCI-H226): > 100 µM (inactive)
- GI50 (UACC-257): > 100 µM (inactive)
- GI50 (NCI/ADR-RES): > 100 µM (inactive)
- GI50 (SK-MEL-2): > 100 µM (inactive)
- GI50 (HOP-62): > 100 µM (inactive)
- GI50 (U-251): > 100 µM (inactive)
- GI50 (MDA-MB-435): > 100 µM (inactive)
- GI50 (ACHN): > 100 µM (inactive)
- GI50 (SF-295): > 100 µM (inactive)
- GI50 (OVCAR-8): > 100 µM (inactive)
- GI50 (Hs-578T): > 100 µM (inactive)
- GI50 (SN12C): > 100 µM (inactive)
- GI50 (CCRF-CEM): > 100 µM (inactive)
- GI50 (HOP-92): > 100 µM (inactive)
- GI50 (HCC 2998): > 100 µM (inactive)
- GI50 (A498): > 100 µM (inactive)
- GI50 (IGROV-1): > 100 µM (inactive)
- GI50 (MOLT-4): > 100 µM (inactive)
- GI50 (PC-3): > 100 µM (inactive)
- GI50 (LOX IMVI): > 100 µM (inactive)
- GI50 (SNB-75): > 100 µM (inactive)
- GI50 (HCT-116): > 100 µM (inactive)
- GI50 (786-0): > 100 µM (inactive)
- GI50 (UO-31): > 100 µM (inactive)
- GI50 (SK-OV-3): > 100 µM (inactive)
- GI50 (RXF 393): > 100 µM (inactive)
- GI50 (NCI-H23): > 100 µM (inactive)
- GI50 (SF-268): > 100 µM (inactive)
- GI50 (SR): > 100 µM (inactive)
- GI50 (COLO 205): > 100 µM (inactive)
- GI50 (CAKI-1): > 100 µM (inactive)
- GI50 (OVCAR-5): > 100 µM (inactive)
- GI50 (RPMI-8226): > 100 µM (inactive)
